The source of these data is ChEMBL document CHEMBL1157712, “Hit to lead account of the discovery of bisbenzamide and related ureidobenzamide inhibitors of Rho kinase” (J Med Chem, 2010).

The target in data set [1] is Protein kinase C delta type (Homo sapiens, UniProt Q05655). The data set can be described thus: Inhibition of PRKCD.
Data set [2] relates to Caco-2. The data set can be described thus: Permeability from apical to basolateral side in human Caco-2 cells. To be noted: caco-2, BLD = below limit of detection. Format: ADME, cell-based.
Data set [3] deals with MAP/microtubule affinity-regulating kinase 3 (Homo sapiens) (UniProt P27448). To be noted: 3 to 6 uM.
Description: Inhibition of MARK3 at 3 to 6 uM relative to control
Data set [4] deals with Ribosomal protein S6 kinase alpha-5 (Homo sapiens) (UniProt O75582). As to conditions: 3 to 6 uM.
Description: Inhibition of MSK1 at 3 to 6 uM relative to control
The target in data set [5] is Serine/threonine-protein kinase 3 (Homo sapiens) (UniProt Q13188). As to conditions: 3 to 6 uM.
Description: Inhibition of MST2 at 3 to 6 uM relative to control
Data set [6] deals with Serine/threonine-protein kinase mTOR (Homo sapiens) (UniProt P42345). As to conditions: 3 to 6 uM.
Description: Inhibition of mTOR at 3 to 6 uM relative to control
The target in data set [7] is Serine/threonine-protein kinase Nek2 (Homo sapiens) (UniProt P51955). To be noted: 3 to 6 uM.
Description: Inhibition of NEK2a at 3 to 6 uM relative to control
The target of data set [8] is Protein kinase C alpha type (Homo sapiens) (UniProt P17252). As to conditions: 3 to 6 uM.
Description: Inhibition of PKCalpha at 3 to 6 uM relative to control
Data set [9] addresses Epidermal growth factor receptor (Homo sapiens) (UniProt P00533). To be noted: 3 to 6 uM.
Description: Inhibition of EGFR at 3 to 6 uM relative to control
The target of data set [10] is Mitogen-activated protein kinase 10 (Homo sapiens) (UniProt P53779). As to conditions: 3 to 6 uM.
Description: Inhibition of JNK3a1 at 3 to 6 uM relative to control
Data set [11] deals with Tyrosine-protein kinase CSK (Homo sapiens) (UniProt P41240). Description: Inhibition of CSK at 3 uM relative to control; values are per cent of control.
The target in data set [12] is Lymphokine-activated killer T-cell-originated protein kinase (Homo sapiens) (UniProt Q96KB5). Description: Inhibition of PBK at 3 uM relative to control; values are per cent of control.
Data set [13] concerns the target [Pyruvate dehydrogenase (acetyl-transferring)] kinase isozyme 1, mitochondrial (Homo sapiens) (UniProt Q15118). The data set can be described thus: Inhibition of PDK1 at 3 uM relative to control; values are per cent of control.
Data set [14] deals with MAP kinase-activated protein kinase 5 (Homo sapiens) (UniProt Q8IW41). The data set can be described thus: Inhibition of PRAK at 3 uM relative to control; values are per cent of control.
Data set [15] concerns the target Dual specificity tyrosine-phosphorylation-regulated kinase 1A (Homo sapiens) (UniProt Q13627). The data set can be described thus: Inhibition of DYRK1A at 3 uM relative to control; values are per cent of control.
The target of data set [16] is RAC-beta serine/threonine-protein kinase (Homo sapiens) (UniProt P31751). Description: Inhibition of PKBbeta at 3 uM relative to control; values are per cent of control.
Data set [17] has as its target Ribosomal protein S6 kinase alpha-1 (Homo sapiens) (UniProt Q15418). Description: Inhibition of MAPKAPK1A at 3 uM relative to control; values are per cent of control.

Each structure is given as a SMILES string.

Protein kinase C delta type, sequence (Q05655 whole entry): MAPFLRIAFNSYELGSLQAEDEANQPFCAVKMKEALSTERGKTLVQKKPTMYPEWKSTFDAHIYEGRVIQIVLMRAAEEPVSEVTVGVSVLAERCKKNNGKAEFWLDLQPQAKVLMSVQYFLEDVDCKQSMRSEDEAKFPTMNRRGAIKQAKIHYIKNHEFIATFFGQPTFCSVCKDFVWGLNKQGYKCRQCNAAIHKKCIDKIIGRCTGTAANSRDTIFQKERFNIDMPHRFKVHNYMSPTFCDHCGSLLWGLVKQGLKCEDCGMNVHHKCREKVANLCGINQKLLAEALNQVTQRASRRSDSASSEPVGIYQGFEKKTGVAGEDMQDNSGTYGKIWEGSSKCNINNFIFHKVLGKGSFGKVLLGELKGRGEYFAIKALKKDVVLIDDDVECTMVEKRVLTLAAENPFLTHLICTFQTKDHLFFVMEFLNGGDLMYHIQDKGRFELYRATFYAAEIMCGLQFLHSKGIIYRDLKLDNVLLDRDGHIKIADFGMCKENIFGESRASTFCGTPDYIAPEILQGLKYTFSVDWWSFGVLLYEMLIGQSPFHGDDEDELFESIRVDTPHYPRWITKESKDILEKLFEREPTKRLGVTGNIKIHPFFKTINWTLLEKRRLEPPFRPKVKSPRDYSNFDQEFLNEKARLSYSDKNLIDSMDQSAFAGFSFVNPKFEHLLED
Epidermal growth factor receptor (Homo sapiens), sequence (P00533 whole entry): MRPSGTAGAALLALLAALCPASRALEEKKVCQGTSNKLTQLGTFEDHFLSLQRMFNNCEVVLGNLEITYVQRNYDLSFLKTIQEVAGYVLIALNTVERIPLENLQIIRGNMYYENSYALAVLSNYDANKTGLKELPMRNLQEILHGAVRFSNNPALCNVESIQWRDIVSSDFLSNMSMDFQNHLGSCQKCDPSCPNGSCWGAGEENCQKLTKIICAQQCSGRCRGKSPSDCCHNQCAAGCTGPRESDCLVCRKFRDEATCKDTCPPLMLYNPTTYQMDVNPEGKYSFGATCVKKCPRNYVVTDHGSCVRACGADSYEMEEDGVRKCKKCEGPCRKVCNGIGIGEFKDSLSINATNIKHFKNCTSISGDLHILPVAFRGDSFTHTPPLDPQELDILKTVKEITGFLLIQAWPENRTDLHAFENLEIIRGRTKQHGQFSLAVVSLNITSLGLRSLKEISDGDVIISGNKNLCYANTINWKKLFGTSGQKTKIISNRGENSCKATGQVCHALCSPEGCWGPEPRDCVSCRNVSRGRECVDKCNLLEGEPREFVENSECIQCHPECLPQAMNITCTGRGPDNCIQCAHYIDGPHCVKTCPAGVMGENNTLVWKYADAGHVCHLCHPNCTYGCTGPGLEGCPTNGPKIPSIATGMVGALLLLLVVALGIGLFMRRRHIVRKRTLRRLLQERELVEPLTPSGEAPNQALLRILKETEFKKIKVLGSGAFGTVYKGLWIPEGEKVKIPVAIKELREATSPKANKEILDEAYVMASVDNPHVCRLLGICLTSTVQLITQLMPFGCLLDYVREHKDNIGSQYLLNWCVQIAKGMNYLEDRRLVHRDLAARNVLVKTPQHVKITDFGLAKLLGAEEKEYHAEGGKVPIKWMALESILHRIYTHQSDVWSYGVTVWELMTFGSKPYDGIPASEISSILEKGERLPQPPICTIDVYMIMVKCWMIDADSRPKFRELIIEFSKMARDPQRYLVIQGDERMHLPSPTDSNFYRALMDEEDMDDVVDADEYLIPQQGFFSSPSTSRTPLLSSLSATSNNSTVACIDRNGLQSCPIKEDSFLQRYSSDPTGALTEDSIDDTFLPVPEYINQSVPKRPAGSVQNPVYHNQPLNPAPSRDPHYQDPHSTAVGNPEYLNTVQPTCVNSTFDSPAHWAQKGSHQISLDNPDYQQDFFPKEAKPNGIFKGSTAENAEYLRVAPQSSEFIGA
Lymphokine-activated killer T-cell-originated protein kinase (Homo sapiens), sequence (Q96KB5 whole entry): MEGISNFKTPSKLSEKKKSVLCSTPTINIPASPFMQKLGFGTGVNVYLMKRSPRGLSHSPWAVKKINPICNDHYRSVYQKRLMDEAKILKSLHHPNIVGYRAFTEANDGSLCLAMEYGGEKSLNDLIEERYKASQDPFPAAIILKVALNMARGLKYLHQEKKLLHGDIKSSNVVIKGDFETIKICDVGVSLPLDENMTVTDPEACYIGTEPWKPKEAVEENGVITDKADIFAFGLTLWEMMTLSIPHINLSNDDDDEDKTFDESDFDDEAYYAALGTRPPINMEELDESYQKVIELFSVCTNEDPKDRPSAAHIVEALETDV
MAP/microtubule affinity-regulating kinase 3 (Homo sapiens), sequence (P27448 whole entry, looked up): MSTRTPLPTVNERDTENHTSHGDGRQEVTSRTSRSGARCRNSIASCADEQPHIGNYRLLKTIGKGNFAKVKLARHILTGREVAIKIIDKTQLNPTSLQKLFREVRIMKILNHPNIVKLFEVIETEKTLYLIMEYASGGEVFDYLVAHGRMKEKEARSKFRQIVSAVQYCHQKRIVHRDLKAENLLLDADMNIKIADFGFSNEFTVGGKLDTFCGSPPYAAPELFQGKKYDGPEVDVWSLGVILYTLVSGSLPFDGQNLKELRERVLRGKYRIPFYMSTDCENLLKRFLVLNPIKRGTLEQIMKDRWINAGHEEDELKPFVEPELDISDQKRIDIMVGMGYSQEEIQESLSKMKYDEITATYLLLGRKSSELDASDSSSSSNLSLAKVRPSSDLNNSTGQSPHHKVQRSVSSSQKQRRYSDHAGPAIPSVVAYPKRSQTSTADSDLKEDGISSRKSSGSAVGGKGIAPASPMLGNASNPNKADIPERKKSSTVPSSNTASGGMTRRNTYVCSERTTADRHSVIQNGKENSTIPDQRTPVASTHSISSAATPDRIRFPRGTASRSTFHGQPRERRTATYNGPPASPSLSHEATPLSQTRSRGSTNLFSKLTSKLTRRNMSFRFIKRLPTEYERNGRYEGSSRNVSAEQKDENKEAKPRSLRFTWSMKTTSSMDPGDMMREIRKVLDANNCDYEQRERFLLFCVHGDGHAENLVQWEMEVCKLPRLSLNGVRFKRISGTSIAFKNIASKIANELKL
Serine/threonine-protein kinase 3 (Homo sapiens), sequence (Q13188 whole entry): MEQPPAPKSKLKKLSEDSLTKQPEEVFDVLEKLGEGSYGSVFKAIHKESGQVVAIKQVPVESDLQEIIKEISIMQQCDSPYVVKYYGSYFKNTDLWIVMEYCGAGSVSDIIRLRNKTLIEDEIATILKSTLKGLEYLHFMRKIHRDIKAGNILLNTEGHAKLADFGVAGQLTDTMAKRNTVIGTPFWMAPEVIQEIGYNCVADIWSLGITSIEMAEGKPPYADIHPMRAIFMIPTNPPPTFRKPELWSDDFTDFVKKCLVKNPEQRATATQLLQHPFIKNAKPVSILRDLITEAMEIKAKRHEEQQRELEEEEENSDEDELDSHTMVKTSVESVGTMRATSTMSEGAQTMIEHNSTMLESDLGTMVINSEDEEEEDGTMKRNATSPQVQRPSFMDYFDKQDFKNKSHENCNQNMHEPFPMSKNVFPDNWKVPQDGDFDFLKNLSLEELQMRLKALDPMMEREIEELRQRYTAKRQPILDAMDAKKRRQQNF
MAP kinase-activated protein kinase 5 (Homo sapiens), sequence (Q8IW41 whole entry): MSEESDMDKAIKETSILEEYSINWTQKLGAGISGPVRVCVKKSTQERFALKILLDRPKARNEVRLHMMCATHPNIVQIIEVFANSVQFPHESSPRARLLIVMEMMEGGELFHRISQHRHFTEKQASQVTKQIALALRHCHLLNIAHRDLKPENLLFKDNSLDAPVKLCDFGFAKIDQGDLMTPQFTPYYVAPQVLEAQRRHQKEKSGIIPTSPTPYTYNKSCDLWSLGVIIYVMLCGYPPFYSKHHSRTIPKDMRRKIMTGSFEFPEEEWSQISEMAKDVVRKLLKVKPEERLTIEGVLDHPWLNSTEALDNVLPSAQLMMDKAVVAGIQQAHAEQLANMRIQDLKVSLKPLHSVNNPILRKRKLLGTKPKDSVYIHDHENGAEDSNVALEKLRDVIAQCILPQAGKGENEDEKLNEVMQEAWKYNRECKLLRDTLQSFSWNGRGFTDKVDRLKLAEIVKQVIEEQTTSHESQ
Tyrosine-protein kinase CSK (Homo sapiens), sequence (P41240 2-450 limits assumed): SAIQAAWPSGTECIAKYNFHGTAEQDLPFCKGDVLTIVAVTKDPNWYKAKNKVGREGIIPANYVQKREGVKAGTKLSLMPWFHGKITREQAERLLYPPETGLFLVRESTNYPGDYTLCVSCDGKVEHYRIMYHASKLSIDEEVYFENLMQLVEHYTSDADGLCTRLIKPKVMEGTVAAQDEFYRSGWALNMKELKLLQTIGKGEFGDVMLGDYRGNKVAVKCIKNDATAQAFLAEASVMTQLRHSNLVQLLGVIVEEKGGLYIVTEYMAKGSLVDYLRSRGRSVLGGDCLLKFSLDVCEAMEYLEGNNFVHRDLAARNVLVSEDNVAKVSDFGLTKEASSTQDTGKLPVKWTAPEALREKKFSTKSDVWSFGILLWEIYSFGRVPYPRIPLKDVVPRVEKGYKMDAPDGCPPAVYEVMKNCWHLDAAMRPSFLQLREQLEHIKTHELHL

Usually IC50 stands for the concentration at which inhibition is half-maximal. In the case of `COc1ccc(C(=O)NCc2cccc(C(=O)Nc3ccc4c(c3)CNCC4)c2)cc1OC`, the IC50 in [1] is over 10 µM. The permeability result in data set [2] is on record as “BLD”. The residual activity in data set [3], in data set [4], in data set [5], in [6], in [7] and in data set [8] was over 50% throughout. Further, the residual activity in [9] and in data set [10] was over 50% throughout.

For the compound `NC(=O)c1ccc(NC(=O)NCc2cccc(C(=O)Nc3ccc4c(c3)CNCC4)c2)cc1`, the residual activity in data set [11], in [12], in data set [13], in data set [14], in data set [15] and in data set [16] was over 50% each time. Besides, the residual activity in data set [17] is over 50%.
